Literature values in paper PMC12435690, “KYLO-0603, a novel liver-targeting, thyroid hormone receptor-β agonist for the inhibition of MASH progression” (PLOS One, 2025).
Values joined by “and” are separate entries in the source; they are usually repeats but may differ in a detail not shown here. Equal entries are not always repeated.

System: THR-β over THR-α
Design: method as in PMID 38771485, PMID 33306682, PMID 9653548, PMID 32098589
Details: in vitro THR competition assays ref [28],[47],[48],[49]; cited from earlier work

For `CC(C)c1cc(Oc2c(Cl)cc(-n3nc(C#N)c(=O)[nH]c3=O)cc2Cl)n[nH]c1=O` [Resmetirom], the “selectivity ratio for THR-β over THR-α” value is given as 12 and 17.
